Activity data for 1 molecule are collected here from ChEMBL document CHEMBL1144058, “Pikuroside: a novel iridoid from Picrorhiza kurroa” (1999).

Molecules are shown by their SMILES.

The species entered for this experiment is Mus musculus. As to the kind of experiment: Antiinflammatory activity against croton oil-induced ear swelling in BALB/c mouse after 6 hrs. It counts as functional.

Consider `COc1cc(C(=O)O[C@H]2[C@@H]3C=CO[C@@H](O[C@@H]4O[C@H](CO)[C@@H](O)[C@H](O)[C@H]4O)[C@@H]3[C@@]3(CO)O[C@@H]23)ccc1O` [PICROSIDE II], for which the Activity was 46%.
